The record followed here is patent publication US9498483B2, “2,3,5-trisubstituted thiophene compounds and uses thereof” (priority 2010, dated 2016).

Test [1] deals with T1, HCV polymerase (Hepatitis C virus genotype 1b, UniProt Q9WMX2).
T1 construct: (His)6 (C); made in house; host or cells: XL-1 cells (E. coli, by own knowledge)
Kind of test: Polymerase assay of Biological Example 1 (IC50 values of Table 3). Conditions: IC50 values of Table 3, polymerase assay of Biological Example 1; read-out: NS5B-enzyme3. Type of test: biochemical. From the text:
A number of assays have been published to assess these activities. A general method that assesses the gross increase of HCV virus in culture was disclosed in U.S. Pat. No. 5,738,985 to Miles et al. In vitro assays have been reported in Ferrari et al. Jnl. of Vir., 73:1649-1654, 1999; Ishii et al., Hepatology, 29:1227-1235, 1999; Lohmann et al., Jnl of Bio. Chem., 274:10807-10815, 1999; and Yamashita et al., Jnl. of Bio. Chem., 273:15479-15486, 1998.
WO 97/12033, filed on Sep. 27, 1996, by Emory University, listing C. Hagedorn and A. Reinoldus as inventors, which claims priority to U.S. Provisional Patent Application Ser. No. 60/004,383, filed on September 1995, described an HCV polymerase assay that can be used to evaluate the activity of the of the compounds described herein. Another HCV polymerase assay has been reported by Bartholomeusz, et al., Hepatitis C Virus (HCV) RNA polymerase assay using cloned HCV non-structural proteins; Antiviral Therapy 1996:1 (Supp 4) 18-24.

For test [2], the system named is HCV replicon I389luc-ubi-neo/NS3-3′/ET in ET (Huh-lucubineo-ET) cells. Kind of test: Replicon assay (Biological Example 2), luciferase readout. It counts as cell-based. Conditions: Hepatitis C virus. As to the method:
A cell line, ET (Huh-lucubineo-ET) was used for screening of compounds for inhibiting HCV RNA dependent RNA polymerase. The ET cell line was stably transfected with RNA transcripts harboring a I389luc-ubi-neo/NS3-3′/ET; replicon with firefly luciferase-ubiquitin-neomycin phosphotransferase fusion protein and EMCV-IRES driven NS3-5B polyprotein containing the cell culture adaptive mutations (E1202G; T12801; K1846T) (Krieger at al, 2001 and unpublished). The ET cells were grown in DMEM (Dulbeco's Modified Eagle's Medium), supplemented with 10% fetal calf serum, 2 mM Glutamine, Penicillin (100 IU/mL)/Streptomycin (100 μg/mL), 1× nonessential amino acids, and 250 μg/mL G418 (“Geneticin”). Reagents were all available through Life Technologies (Bethesda, Md.). The cells were plated at 0.5-1.0×10^4 cells/well in the 96 well plates and incubated for 24 hrs before adding test compound. The compounds were added to the cells to achieve a final concentration of 0.1 nM to 50 μM and a final DMSO (dimethylsulfoxide) concentration of 0.5%. Luciferase activity was measured 48 hours later by adding a lysis buffer and the substrate (Catalog number Glo-lysis buffer E2661 and Bright-Glo luciferase system E2620 Promega, Madison, Wis.). Cells should not be too confluent during the assay. Percent inhibition of replication data was plotted relative to no compound control. To determine the EC50 (effective concentration at which 50% of the maximum inhibition was observed), a 10 point, 3-fold serial dilution for each compound was used, which spans a concentration range of […]. EC50 values were calculated by fitting % inhibition at each concentration to the following equation: % inhibition=100%/[(EC50/[I])^b+1] where b was Hill's coefficient.
In other aspects the EC50 was equal to or less than 10 μM. In still other aspects the EC50 was equal to or less than 1 μM.
In general terms: A replicon is a self-replicating genome or part of one, used to study replication in cells.

The mark [3] stands for this setting: ET cells, luciferase activity 48 hours after compound.

Where only a bound is given, the exact number is not on record here.

With `O=C(O)c1ccc(S(=O)(=O)N2CC(=O)N(c3cc(-c4ccccc4)sc3C(=O)O)C(C3CCCCC3)C2)cc1` (stereo not drawn) [Compound 30, 3-[4-(4-Carboxy-benzenesulfonyl)-2-cyclohexyl-6-oxo-piperazin-1-yl]-5-phenyl-thiophene-2-carboxylic acid], the IC50 in test [1] was 3 nM; in test [2] (setting [3]), at least 5000 nM.

In the case of `CCCCCS(=O)(=O)N1CC(=O)N(c2cc(-c3ccccc3)sc2C(=O)O)C(C2CCCCC2)C1` (stereo not drawn) [Compound 31, 3-[2-Cyclohexyl-6-oxo-4-(pentane-1-sulfonyl)-piperazin-1-yl]-5-phenyl-thiophene-2-carboxylic acid], the IC50 is 47 nM in test [1]; 100 to 5000 nM in test [2] (between 100 nM and 5.0 uM).

On to `Cc1noc(C)c1S(=O)(=O)N1CC(=O)N(c2cc(-c3ccccc3)sc2C(=O)O)C(C2CCCCC2)C1` (stereo not drawn) [Compound 32, 3-[2-Cyclohexyl-4-(3,5-dimethyl-isoxazole-4-sulfonyl)-6-oxo-piperazin-1-yl]-5-phenyl-thiophene-2-carboxylic acid], for which the IC50 in test [1] was 241 nM; in test [2] (setting [3]) it was at least 5000 nM.

`Cc1oc(C)c(S(=O)(=O)N2CC(=O)N(c3cc(-c4ccccc4)sc3C(=O)O)C(C3CCCCC3)C2)c1C(=O)O` (stereo not drawn) [Compound 33, 4-[4-(2-Carboxy-5-phenyl-thiophen-3-yl)-3-cyclohexyl-5-oxo-piperazine-1-sulfonyl]-2,5-dimethyl-furan-3-carboxylic acid]: the IC50 in test [1] was 38 nM; in test [2] (setting [3]) it was at least 5000 nM.

Take `CC(C)(C)C#Cc1cc(N2C(=O)CCC[C@@H]2C2CCCCC2)c(C(=O)O)s1` [Compound 34, 3-((R)-2-Cyclohexyl-6-oxo-piperidin-1-yl)-5-(3,3-dimethyl-but-1-ynyl)-thiophene-2-carboxylic acid]: the IC50 was 1050 nM in test [1] and at least 5000 nM in test [2] (setting [3]).

Regarding `CC(C)(C)C#Cc1cc(N2C(=O)CCC[C@H]2C2CCCCC2)c(C(=O)O)s1` [Compound 35, 3-((S)-2-Cyclohexyl-6-oxo-piperidin-1-yl)-5-(3,3-dimethyl-but-1-ynyl)-thiophene-2-carboxylic acid], the values for the IC50 in test [1] and in test [2] (setting [3]) were 9.5 nM and at most 100 nM, respectively.

For `CC1CCN(S(=O)(=O)N2CC(=O)N(c3cc(-c4ccccc4)sc3C(=O)O)C(C3CCCCC3)C2)CC1` (stereo not drawn) [Compound 36, 3-[2-Cyclohexyl-4-(4-methyl-piperidine-1-sulfonyl)-6-oxo-piperazin-1-yl]-5-phenyl-thiophene-2-carboxylic acid], the IC50 is 58 nM in test [1]; 100 to 5000 nM in test [2] (between 100 nM and 5.0 uM).

As for `CC(C)S(=O)(=O)N1CC(=O)N(c2cc(-c3ccccc3)sc2C(=O)O)C(C2CCCCC2)C1` (stereo not drawn) [Compound 37, 3-[2-Cyclohexyl-6-oxo-4-(propane-2-sulfonyl)-piperazin-1-yl]-5-phenyl-thiophene-2-carboxylic acid], the IC50 in test [1] was 72 nM; in test [2] (between 100 nM and 5.0 uM), 100 to 5000 nM.

`CC(C)CS(=O)(=O)N1CC(=O)N(c2cc(-c3ccccc3)sc2C(=O)O)C(C2CCCCC2)C1` (stereo not drawn) [Compound 38, 3-[2-Cyclohexyl-4-(2-methyl-propane-1-sulfonyl)-6-oxo-piperazin-1-yl]-5-phenyl-thiophene-2-carboxylic acid]: the IC50 was 65 nM in test [1]; 100 to 5000 nM in test [2] (between 100 nM and 5.0 uM).

Regarding `O=C(O)c1sc(-c2ccccc2)cc1N1C(=O)CN(S(=O)(=O)CCc2ccccc2)CC1C1CCCCC1` (stereo not drawn) [Compound 39, 3-[2-Cyclohexyl-6-oxo-4-(2-phenyl-ethanesulfonyl)-piperazin-1-yl]-5-phenyl-thiophene-2-carboxylic acid], the IC50 is 51 nM in test [1]; 100 to 5000 nM in test [2] (between 100 nM and 5.0 uM).

As for `O=C(O)c1sc(-c2ccccc2)cc1N1C(=O)CN(S(=O)(=O)c2ccccc2F)CC1C1CCCCC1` (stereo not drawn) [Compound 40, 3-[2-Cyclohexyl-4-(2-fluoro-benzenesulfonyl)-6-oxo-piperazin-1-yl]-5-phenyl-thiophene-2-carboxylic acid], the IC50 in test [1] is 13 nM; in test [2] (between 100 nM and 5.0 uM) it was 100 to 5000 nM.

As for `O=C(O)CCS(=O)(=O)N1CC(=O)N(c2cc(-c3ccccc3)sc2C(=O)O)C(C2CCCCC2)C1` (stereo not drawn) [Compound 41, 3-[4-(2-Carboxy-ethanesulfonyl)-2-cyclohexyl-6-oxo-piperazin-1-yl]-5-phenyl-thiophene-2-carboxylic acid], the IC50 in test [1] is 218 nM; in test [2] (setting [3]), at least 5000 nM.

With `O=C(O)c1sc(-c2ccccc2)cc1N1C(=O)CN(S(=O)(=O)C2CCCC2)CC1C1CCCCC1` (stereo not drawn) [Compound 42, 3-(2-Cyclohexyl-4-cyclopentanesulfonyl-6-oxo-piperazin-1-yl)-5-phenyl-thiophene-2-carboxylic acid], the IC50 was 148 nM in test [1]; 100 to 5000 nM in test [2] (between 100 nM and 5.0 uM).

Regarding `CCC(C)S(=O)(=O)N1CC(=O)N(c2cc(-c3ccccc3)sc2C(=O)O)C(C2CCCCC2)C1` (stereo not drawn) [Compound 45, 3-[4-(Butane-2-sulfonyl)-2-cyclohexyl-6-oxo-piperazin-1-yl]-5-phenyl-thiophene-2-carboxylic acid], the IC50 was 4900 nM in test [1]; 100 to 5000 nM in test [2] (between 100 nM and 5.0 uM).

`O=C(O)c1sc(-c2ccccc2)cc1N1C(=O)CN(S(=O)(=O)C2CCCCC2)CC1C1CCCCC1` (stereo not drawn) [Compound 46, 3-(4-Cyclohexanesulfonyl-2-cyclohexyl-6-oxo-piperazin-1-yl)-5-phenyl-thiophene-2-carboxylic acid]: the IC50 in test [1] was 63 nM; in test [2] (between 100 nM and 5.0 uM), 100 to 5000 nM.

Turning to `NCCS(=O)(=O)N1CC(=O)N(c2cc(-c3ccccc3)sc2C(=O)O)C(C2CCCCC2)C1` (stereo not drawn) [Compound 47, 3-[4-(2-Amino-ethanesulfonyl)-2-cyclohexyl-6-oxo-piperazin-1-yl]-5-phenyl-thiophene-2-carboxylic acid], the IC50 is 88 nM in test [1]; at least 5000 nM in test [2] (setting [3]); 100 to 5000 nM in test [2] (between 100 nM and 5.0 uM).

As to `O=C(O)c1sc(-c2cccc(F)c2)cc1N1C(=O)CCCC1C1CCCCC1` (stereo not drawn) [Compound 48, 3-(2-Cyclohexyl-6-oxo-piperidin-1-yl)-5-(3-fluoro-phenyl)-thiophene-2-carboxylic acid], the IC50 in test [1] is 187 nM; in test [2] (between 100 nM and 5.0 uM), 100 to 5000 nM.

For the molecule `Cc1cccc(S(=O)(=O)N2CC(=O)N(c3cc(-c4ccccc4)sc3C(=O)O)C(C3CCCCC3)C2)c1` (stereo not drawn) [Compound 49, 3-[2-Cyclohexyl-6-oxo-4-(toluene-3-sulfonyl)-piperazin-1-yl]-5-phenyl-thiophene-2-carboxylic acid], the IC50 in test [1] is 15 nM; in test [2] (between 100 nM and 5.0 uM), 100 to 5000 nM.

As for `CC(=O)Nc1ccc(S(=O)(=O)N2CC(=O)N(c3cc(-c4ccccc4)sc3C(=O)O)C(C3CCCCC3)C2)cc1` (stereo not drawn) [Compound 50, 3-[4-(4-Acetylamino-benzenesulfonyl)-2-cyclohexyl-6-oxo-piperazin-1-yl]-5-phenyl-thiophene-2-carboxylic acid], the IC50 in test [1] was 7 nM; in test [2] (between 100 nM and 5.0 uM) it was 100 to 5000 nM.

With `O=C(O)c1sc(-c2ccccc2)cc1N1C(=O)CN(S(=O)(=O)c2ccc(Oc3ccccc3)cc2)CC1C1CCCCC1` (stereo not drawn) [Compound 51, 3-[2-Cyclohexyl-6-oxo-4-(4-phenoxy-benzenesulfonyl)-piperazin-1-yl]-5-phenyl-thiophene-2-carboxylic acid], the IC50 in test [1] was 11 nM; in test [2] (between 100 nM and 5.0 uM) it was 100 to 5000 nM.

On to `O=C(O)c1sc(-c2ccccc2)cc1N1C(=O)CN(S(=O)(=O)c2ccccc2)CC1C1CCCCC1` (stereo not drawn) [Compound 52, 3-(4-Benzenesulfonyl-2-cyclohexyl-6-oxo-piperazin-1-yl)-5-phenyl-thiophene-2-carboxylic acid], for which the IC50 in test [1] is 15 nM; in test [2] (between 100 nM and 5.0 uM), 100 to 5000 nM.

Take `O=C(O)c1sc(-c2ccccc2)cc1N1C(=O)CN(S(=O)(=O)c2ccc(OC(F)(F)F)cc2)CC1C1CCCCC1` (stereo not drawn) [Compound 53]: the IC50 in test [1] is 24 nM; in test [2] (between 100 nM and 5.0 uM) it was 100 to 5000 nM.
